Source: patent publication US20110212909A1, “Use of Ginsenoside Compound K in the Preparation of a Medicament for the Prevention and Treatment of Atherosclerosis” (priority 2008, published 2011)
Marks after values point to notes of the source that are not given here.

Experiments:
[1] = system: hs-CRP; assay: Serum hs-CRP by double antibody sandwich ELISA in apo E−/− mice; assay type: in vivo, mouse; conditions: 15 weeks
Description: (§1) 80 healthy clean grade C57BL/6J apo E^−/^− mice of 10 weeks old, wherein male and female mice were fifty-fifty, weight 20-22 g, were breed and divided into individual cage in sterile laminar flow rack, allowing mice to freely drink water and get food. Mice were raised for 30 weeks by “Western Diet” (routine mouse feed +0.15% cholesterol +21% fat) high fat feed (^60cobalt sterilization radiation treatment), with raising conditions being SPF grade, room temperature maintained at 24° C., relative humidity of 50%, and lighting time of 7: 30-19: 30. Animal house was sterilized by ultraviolet lamp once every two days, in order to maintain sterile environment of laminar flow rack (establishment of animal model of atherosclerosis refers to reference: Barish G D, Atkins A R, Downes M, Olson P, Chong L W, Nelson M, Zou Y H, Hwang H S, Kang H J, Curtiss L, Evans R M, Lee C H. PPARδ regulates multiple proinflammatory pathways to suppress atherosclerosis. Proc Natl Acad Sci, 2008, 105 (11): 4271-4276.).
(§2) 5 mice of apo E^−/^− mice raised for 15 weeks were randomly selected and sacrificed, root of aorta of which was taken, and replication condition in AS model was observed by HE staining. The remaining mice were randomly divided into 5 groups as follows (n=15): […]
(§3) Above drugs were firstly solved in DMSO, then suspended in 0.5% carboxymethylcellulose solution, mixed homogeneously, and then were administered via gavage, once a day. Mice were weighted once a week, and ingestion amounts were recorded, and drug doses were adjusted according to weight, interfering for 15 weeks. […]
(§4) • blood fat assay: TC, TG, HDL-C, and LDL-C concentrations in serum were determined by applying Olympus Au2700 fully automatic biochemical appearance. • serum inflammatory markers assay: hs-CRP and sCD40L concentrations were determined by applying double antibody sandwich ELISA, in accordance with ELISA kit operating instruction (hs-CRP ELISA kit bought from Herrenberg company, Germany; sCD40L ELISA kit bought from Bender Medsystems company, Austria). • real-time quantitative PCR analysis was carried out on expression of CD36, perilipin, ABCA1, LXRα, MMP-9 and NF-κ B mRNA in apo E^−/^− mouse aorta (a reference method: Zhang Yiguan, Li Xiaohui, Fan Jishan, Zhang Haigang, Li Shuhui, Liao Wenqiang, Pang Yan, Jia Yi. […] 2007, 27 (11): 1601-1607)0 • morphology index image analysis: When slices were HE stained, under X40 fold ordinary light microscope, artery atherosclerosis plaque area of each incisal surface was determined by “Image Pro Plus 5.0” image analysis software. […]

[2] = system: sCD40L; assay: Serum sCD40L by double antibody sandwich ELISA in apo E−/− mice; assay type: in vivo, mouse; conditions: 15 weeks
Description: as §1, §2, §3, §4

[3] = system: perilipin mRNA; assay: Real-time quantitative PCR of perilipin mRNA in apo E−/− mouse aorta; assay type: in vivo; conditions: apo E−/− mice, 15 weeks
Description: (§6) A. model group: vehicle; B. ginsenoside compound K low dose group: ginsenoside compound K 12.5 mg/kg/day; C. ginsenoside compound K middle dose group: ginsenoside compound K 25.0 mg/kg/day; D. ginsenoside compound K high dose group: ginsenoside compound K 50.0 mg/kg/day; E. simvastatin control group: simvastatin 10.0 mg/kg/day.
(§7) Above drugs were firstly solved in DMSO, then suspended in 0.5% carboxymethylcellulose solution, mixed homogeneously, and then were administered via gavage, once a day. Mice were weighted once a week, and ingestion amounts were recorded, and drug doses were adjusted according to weight, interfering for 15 weeks. All the animal were sacrificed in 30th week.
(§8) Total RNA sample of root of aorta of apo E^−/^− mouse: Total RNA samples of root of aorta in each group mouse were extracted, and utilized for analysis of gene expression of various lipid metabolic factors, inflammatory factors, and nucleic transcription factors associated with AS plaque development.

[4] = system: LXRα mRNA; assay: Real-time quantitative PCR of LXRα mRNA in apo E−/− mouse aorta; assay type: in vivo; conditions: apo E−/− mice, 15 weeks
Description: as §1, §2, §3
(§5) • blood fat assay: TC, TG, HDL-C, and LDL-C concentrations in serum were determined by applying Olympus Au2700 fully automatic biochemical appearance. • serum inflammatory markers assay: hs-CRP and sCD40L concentrations were determined by applying double antibody sandwich ELISA, in accordance with ELISA kit operating instruction (hs-CRP ELISA kit bought from Herrenberg company, Germany; sCD40L ELISA kit bought from Bender Medsystems company, Austria). • real-time quantitative PCR analysis was carried out on expression of CD36, perilipin, ABCA1, LXRα, MMP-9 and NF-κ B mRNA in apo E^−/^− mouse aorta (a reference method: Zhang Yiguan, Li Xiaohui, Fan Jishan, Zhang Haigang, Li Shuhui, Liao Wenqiang, Pang Yan, Jia Yi. […] 2007, 27 (11): 1601-1607)0 • morphology index image analysis: When slices were HE stained, under X40 fold ordinary light microscope, artery atherosclerosis plaque area of each incisal surface was determined by “Image Pro Plus 5.0” image analysis software. […] As to Masosn staining, aortic root collagen area (CA) was measured by “Image Pro Plus 5.0” image analysis software, and collagen vessel area ratio (CA/CVA) was calculated. […]

[5] = system: MMP-9 mRNA; assay: Real-time quantitative PCR of MMP-9 mRNA in apo E−/− mouse aorta; assay type: in vivo; conditions: apo E−/− mice, 15 weeks
Description: as §1, §2, §3, §5

[6] = system: NF-κB mRNA; assay: Real-time quantitative PCR of NF-κB mRNA in apo E−/− mouse aorta; assay type: in vivo; conditions: apo E−/− mice, 15 weeks
Description: as §6, §7, §8

[7] = system: AS plaque in apo E−/− mouse aorta; assay: Sudan IV staining of aorta, proportion of plaque area in arteria lining endothelium area; assay type: in vivo; conditions: apo E−/− mice, 15 weeks
Description: as §6, §7
Tissues of apo E^−/^− mice were sliced for AS plaque pathology: blood of eye sockets venous plexus of apo E−/− mice was sampled before the mice was sacrificed by cervical dislocation, and aorta was fixed by converse infusion of physiological saline comprising 4% paraformaldehyde into left ventricle, and then whole aorta was cut off from root of aorta to terminal end of abdomen aorta. Root of aorta was taken, and embedded routinely by paraffin, and slices of thickness of 5 μm were continuously cut off from root of aorta, and were subjected separately to HE staining, and MASSON staining, and then were utilized for AS plaque morphological index analysis of aortic valve cross section.
Pathological staining: □sequent 2 pieces of slices were picked up from each incisal surface of sequent paraffin slices of aorta root per mouse, and were separately subjected to HE staining, and MASSON staining, and were observed under light microscope. □remaining aorta was stained by Sudan IV, and was observed under light microscope.

[8] = C-K high dose 50.0 mg/kg/day gavage
[9] = C-K middle dose 25.0 mg/kg/day gavage
[10] = simvastatin 10.0 mg/kg/day gavage

## CC(C)=CCC[C@](C)(OC1OC(CO)C(O)C(O)C1O)C1CC[C@]2(C)C1[C@H](O)CC1[C@@]3(C)CC[C@H](O)C(C)(C)C3CC[C@]12C (stereo partly drawn) [C-K, 20-O-β-D-glucopyranosyl 20-(S)-protopanaxadiol]
[1]; [8]
  hs-CRP concentration in serum: 6.14 ± 0.29^a ng/mL
[1]; C-K low dose 12.5 mg/kg/day gavage, model 8.13 ± 0.51
  hs-CRP concentration in serum: 6.68 ± 0.54^a ng/mL
[1]; [9]
  hs-CRP concentration in serum: 6.49 ± 0.36^a ng/mL
[2]; [8]
  sCD40L concentration in serum: 5.19 ± 0.19^a ng/mL
[2]; C-K low dose 12.5 mg/kg/day gavage, model 6.15 ± 0.21
  sCD40L concentration in serum: 5.51 ± 0.35^a ng/mL
[2]; [9]
  sCD40L concentration in serum: 5.34 ± 0.32^a ng/mL
[3]; [8]
  expression of perilipin mRNA in aorta (relative concentrations): 0.51 ± 0.54^a
[3]; C-K low dose 12.5 mg/kg/day gavage, model 1.08 ± 0.06
  expression of perilipin mRNA in aorta (relative concentrations): 0.68 ± 0.56^a
[3]; [9]
  expression of perilipin mRNA in aorta (relative concentrations): 0.60 ± 0.49^a
[4]; [8]
  expression of LXRα mRNA in aorta (relative concentrations): 1.36 ± 0.06^b
[4]; C-K low dose 12.5 mg/kg/day gavage, model 0.87 ± 0.06
  expression of LXRα mRNA in aorta (relative concentrations): 1.26 ± 0.05^b
[4]; [9]
  expression of LXRα mRNA in aorta (relative concentrations): 1.33 ± 0.05^b
[5]; [8]
  expression of MMP-9 mRNA in aorta (relative concentrations): 0.67 ± 0.13^b
[5]; C-K low dose 12.5 mg/kg/day gavage, model 1.15 ± 0.12
  expression of MMP-9 mRNA in aorta (relative concentrations): 0.87 ± 0.12^b
[5]; [9]
  expression of MMP-9 mRNA in aorta (relative concentrations): 0.78 ± 0.11^b
[6]; [8]
  expression of NF-κB mRNA in aorta (relative concentrations): 0.69 ± 0.16^b
[6]; C-K low dose 12.5 mg/kg/day gavage, model 1.27 ± 0.18
  expression of NF-κB mRNA in aorta (relative concentrations): 0.90 ± 0.19^b
[6]; [9]
  expression of NF-κB mRNA in aorta (relative concentrations): 0.78 ± 0.23^b
[7]; [8]
  plaque area/ arteria lining endothelium area: 6.73 ± 0.65^b %
[7]; C-K low dose 12.5 mg/kg/day gavage, model 12.24 ± 0.45
  plaque area/ arteria lining endothelium area: 9.28 ± 0.39^b %
[7]; [9]
  plaque area/ arteria lining endothelium area: 9.54 ± 0.21^b %

## CCC(C)(C)C(=O)O[C@H]1C[C@@H](C)C=C2C=C[C@H](C)[C@H](CC[C@@H]3C[C@@H](O)CC(=O)O3)[C@H]21 [simvastatin, reference compound]
[1]; [10]
  hs-CRP concentration in serum: 4.57 ± 0.68^b ng/mL
[2]; [10]
  sCD40L concentration in serum: 4.59 ± 0.37^b ng/mL
[3]; [10]
  expression of perilipin mRNA in aorta (relative concentrations): 0.23 ± 1.32^b
[4]; [10]
  expression of LXRα mRNA in aorta (relative concentrations): 0.95 ± 0.07
[5]; [10]
  expression of MMP-9 mRNA in aorta (relative concentrations): 0.94 ± 0.14^a
[6]; [10]
  expression of NF-κB mRNA in aorta (relative concentrations): 0.89 ± 0.16^b
[7]; [10]
  plaque area/ arteria lining endothelium area: 6.31 ± 0.19^b %
